From US12331041B2, “GLP-1 receptor agonists and uses thereof” (Pfizer Inc., priority 2018, dated 2025)
Counter-ions that a name gives are not always drawn.

Experiments:
[1] = molecular target: T1, human GLP-1R (Homo sapiens, UniProt P43220, G168S); test: CHO GLP-1R Clone H6 - Assay 1 (HTRF cAMP agonist assay); type: cell-based; conditions: for EC50: CHO Clone H6, high GLP-1R density, cAMP, geometric mean
T1 construct: expressed in transfected cells
Description: GLP-1R-mediated agonist activity was determined with a cell-based functional assay utilizing an HTRF (Homogeneous Time-Resolved Fluorescence) cAMP detection kit (cAMP HI Range Assay Kit; CisBio cat #62AM6PEJ) that measures cAMP levels in the cell. The method is a competitive immunoassay between native cAMP produced by the cells and exogenous cAMP labeled with the dye d2, The tracer binding is visualized by a mAb anti-cAMP labeled with Cryptate. The specific signal (i.e. energy transfer) is inversely proportional to the concentration of cAMP in either standard or experimental sample.
The human GLP-1R coding sequence (NCBI Reference Sequence NP_002053.3, including naturally-occurring variant Gly168Ser) was subcloned into pcDNA3 (Invitrogen) and a cell line stably expressing the receptor was isolated (designated Clone H6).
(§1) A 1 mL sample of the cell suspension in growth media was counted on a Becton Dickinson ViCell to determine cell viability and cell count per mL. The remaining cell suspension was then adjusted with growth media to deliver 2000 viable cells per well using a Matrix Combi Multidrop reagent dispenser, and the cells were dispensed into a white 384 well tissue culture treated assay plate (Corning 3570). The assay plate was then incubated for 48 hours at 37° C. in a humidified environment in 5% carbon dioxide.
Varying concentrations of each compound to be tested (in DMSO) were diluted in assay buffer (HBSS with Calcium/Magnesium (Lonza/BioWhittaker cat #10-527F)/0.1% BSA (Sigma Aldrich cat #A7409-1L)/20 mM HEPES (Lonza/BioWhittaker cat #17-737E) containing 100 μM 3-isobutyl-1-methylxanthin (IBMX; Sigma cat #15879). The final DMSO concentration is 1%.
After 48 hours, the growth media was removed from the assay plate wells, and the cells were treated with 20 μL of the serially diluted compound in assay buffer for 30 minutes at 37° C. in a humidified environment in 5% carbon dioxide. Following the 30 minute incubation, 10 μL of labeled d2 cAMP and 10 μL of anti-cAMP antibody (both diluted 1:20 in cell lysis buffer; as described in the manufacturer's assay protocol) were added to each well of the assay plate. The plates were then incubated at room temperature and after 60 minutes, changes in the HTRF signal were read with an Envision 2104 multi-label plate reader using excitation of 330 nm and emissions of 615 and 665 nm. Raw data were converted to nM cAMP by interpolation from a cAMP standard curve (as described in the manufacturer's assay protocol) and the percent effect was determined relative to a saturating concentration of the full agonist GLP-17-36 (1 μM) included on each plate. EC50 determinations were made from agonist dose-response curves analyzed with a curve fitting program using a 4-parameter logistic dose response equation.

[2] = molecular target: T2, human GLP-1R (Homo sapiens, UniProt P43220, L260F); test: CHO GLP-1R Clone C6 - Assay 2 (HTRF cAMP agonist assay); type: cell-based; conditions: for EC50: CHO clone C6, low GLP-1R density, cAMP, geometric mean; for Emax: CHO clone C6, relative to saturating full agonist GLP-1 (1 μM), arithmetic mean
T2 construct: expressed in transfected cells; host or cells: CHO Flp-In T-REx, clonal line C6 (pcDNA5-FRT-TO)
T2 sequence (P43220 24-463 L260F): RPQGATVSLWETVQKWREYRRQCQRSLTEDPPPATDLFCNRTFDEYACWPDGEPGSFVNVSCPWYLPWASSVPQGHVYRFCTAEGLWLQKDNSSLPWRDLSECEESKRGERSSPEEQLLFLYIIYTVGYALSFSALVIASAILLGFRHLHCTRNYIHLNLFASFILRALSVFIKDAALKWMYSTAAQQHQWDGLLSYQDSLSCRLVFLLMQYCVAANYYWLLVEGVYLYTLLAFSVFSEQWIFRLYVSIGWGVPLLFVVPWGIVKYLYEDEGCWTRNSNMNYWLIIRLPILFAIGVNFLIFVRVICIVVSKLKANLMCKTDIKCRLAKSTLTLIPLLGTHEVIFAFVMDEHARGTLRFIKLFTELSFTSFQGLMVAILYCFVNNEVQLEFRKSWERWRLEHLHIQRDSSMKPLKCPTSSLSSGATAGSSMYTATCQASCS
Description: GLP-1R-mediated agonist activity was determined with a cell-based functional assay utilizing an HTRF (Homogeneous Time-Resolved Fluorescence) cAMP detection kit (cAMP HI Range Assay Kit; Cis Bio cat #62AM6PEJ) that measures cAMP levels in the cell. The method is a competitive immunoassay between native cAMP produced by the cells and exogenous cAMP labeled with the dye d2. The tracer binding is visualized by a mAb anti-cAMP labeled with Cryptate. The specific signal (i.e. energy transfer) is inversely proportional to the concentration of cAMP in either a standard or an experimental sample.
The human GLP-1R coding sequence (NCBI Reference Sequence NP_002053.3, including naturally-occurring variant Leu260Phe) was subcloned into pcDNA5-FRT-TO and a clonal CHO cell line stably expressing a low receptor density was isolated using the Flp-In™ T-Rex™ System, as described by the manufacturer (ThermoFisher).
as §1, with “deliver 1600” for “deliver 2000”, “48 h” for “48 hours”, “environment (95% O2,” for “environment in”, “5% CO2)” for “5% carbon dioxide.”
Varying concentrations of each compound to be tested (in DMSO) were diluted in assay buffer [HBSS with Calcium/Magnesium (Lonza/BioWhittaker cat #10-527F)/0.1% BSA (Sigma Aldrich cat #A7409-1L)/20 mM HEPES (Lonza/BioWhittaker cat #17-737E)] containing 100 μM 3-isobutyl-1-methylxanthin (IBMX; Sigma cat #15879). The final DMSO concentration in the compound/assay buffer mixture is 1%.
After 48 h, the growth media was removed from the assay plate wells, and the cells were treated with 20 μL of the serially diluted compound in assay buffer for 30 min at 37° C. in a humidified environment (95% O2, 5% CO2). Following the 30 min incubation, 10 μL of labeled d2 cAMP and 10 μL of anti-cAMP antibody (both diluted 1:20 in cell lysis buffer; as described in the manufacturer's assay protocol) were added to each well of the assay plate. The plates were then incubated at room temperature and after 60 minutes, changes in the HTRF signal were read with an Envision 2104 multi-label plate reader using excitation of 330 nm and emissions of 615 and 665 nm. Raw data were converted to nM cAMP by interpolation from a cAMP standard curve (as described in the manufacturer's assay protocol) and the percent effect was determined relative to a saturating concentration of the full agonist GLP-1 (1 μM) included on each plate. EC50 determinations were made from agonist dose response curves analyzed with a curve fitting program using a 4-parameter logistic dose response equation.

[3] = CHO Clone H6, relative to saturating full agonist GLP-1 7-36 (1 μM), arithmetic mean

T1 sequence (P43220 24-463 G168S): as the sequence (P43220 24-463 L260F) above, with G145S, F237L counted along it

SMILES | EC50 [1] [nM] | Emax [1, 3] [%] | EC50 [2] [nM] | Emax [2] [%] | Assay 1 Emax (%) [1, 3] [%]
C[C@H]1CN(c2ccnc(OCc3ccc(Cl)cc3F)n2)CCN1Cc1nc2ccc(C(=O)O)nc2n1C[C@@H]1CCO1 [Example 77, 2-{[(2S)-4-{2-[(4-chloro-2-fluorobenzyl)oxy]pyrimidin-4-yl}-2-methylpiperazin-1-yl]methyl}-3-[(2S)-oxetan-2-ylmethyl]-3H-imidazo[4,5-b]pyridine-5-carboxylic acid] | 4.4 | 100 | 110 | 110 | 
CCn1cncc1Cn1c(CN2CCC(c3cccnc3OCc3ccc(C#N)cc3F)CC2)nc2ccc(C(=O)O)cc21 [Example 16, 2-[(4-{2-[(4-cyano-2-fluorobenzyl)oxy]pyridin-3-yl}piperidin-1-yl)methyl]-1-[(1-ethyl-1H-imidazol-5-yl)methyl]-1H-benzimidazole-6-carboxylic acid, trifluoroacetate salt] | 0.99 | 87 | 18 | 130 | 
O=C(O)c1ccc2nc(CN3CCN(c4nc(OCc5ccc(Cl)cc5F)ncc4F)CC3)n(C[C@@H]3CCO3)c2c1 [Example 72, 2-[(4-{2-[(4-chloro-2-fluorobenzyl)oxy]-5-fluoropyrimidin-4-yl}piperazin-1-yl)methyl]-1-[(2S)-oxetan-2-ylmethyl]-1H-benzimidazole-6-carboxylic acid] | 6 | 96 | 120 | 130 | 
O=C(O)c1ccc2nc(CN3CCC(c4nccnc4OCc4ccc(Cl)cc4F)CC3)n(Cc3cocn3)c2c1 [Example 21, 2-[(4-{3-[(4-chloro-2-fluorobenzyl)oxy]pyrazin-2-yl}piperidin-1-yl)methyl]-1-(1,3-oxazol-4-ylmethyl)-1H-benzimidazole-6-carboxylic acid, trifluoroacetate salt] | 14 | 73 | 370 | 91 | 
O=C(O)c1ccc2nc(CN3CCN(c4cccnc4OCc4ccc(Cl)cc4F)CC3)n(C[C@@H]3CCO3)c2c1 [Example 33, Ammonium 2-[(4-{2-[(4-chloro-2-fluorobenzyl)oxy]pyridin-3-yl}piperazin-1-yl)methyl]-1-[(2S)-oxetan-2-ylmethyl]-1H-benzimidazole-6-carboxylate] | 3.1 | 93 | 84 | 110 | 
N#Cc1ccc(COc2nccnc2C2CCN(Cc3nc4ccc(C(=O)O)cc4n3Cc3ncco3)CC2)c(F)c1 [Example 25, 2-[(4-{3-[(4-cyano-2-fluorobenzyl)oxy]pyrazin-2-yl}piperidin-1-yl)methyl]-1-(1,3-oxazol-2-ylmethyl)-1H-benzimidazole-6-carboxylic acid, trifluoroacetate salt] | 6.3 | 80 | 73 | 91 | 
O=C(O)c1ccc2nc(CN3CCC(c4cccnc4OCc4ccc(Cl)cc4F)CC3)n(C[C@H]3CCOC3)c2c1 [Example 8, 2-[(4-{2-[(4-chloro-2-fluorobenzyl)oxy]pyridin-3-yl}piperidin-1-yl)methyl]-1-[(3R)-tetrahydrofuran-3-ylmethyl]-1H-benzimidazole-6-carboxylic acid, trifluoroacetate salt] | 6 | 72 | 230 | 76 | 
COCCn1c(C2CC23CCN(c2cccc(OCc4ccc(Cl)cc4F)n2)CC3)nc2ncc(C(=O)O)cc21 (single isomer, unassigned) [Example 49, 2-(6-{6-[(4-chloro-2-fluorobenzyl)oxy]pyridin-2-yl}-6-azaspiro[2.5]oct-1-yl)-1-(2-methoxyethyl)-1H-imidazo[4,5-b]pyridine-6-carboxylic acid, ENT-2] | 18 |  | 290 | 87 | 75
O=C(O)c1ccc2nc(CN3CCC(c4cccnc4OCc4ccc(Cl)cc4F)CC3)n(CCN3CCOC3=O)c2c1 [Example 14, 2-[(4-{2-[(4-chloro-2-fluorobenzyl)oxy]pyridin-3-yl}piperidin-1-yl)methyl]-1-[2-(2-oxo-1,3-oxazolidin-3-yl)ethyl]-1H-benzimidazole-6-carboxylic acid, trifluoroacetate salt] | 14 | 77 | 540 | 120 | 
O=C(O)c1ccc2nc(CN3CCC(c4cccnc4OCc4ccc(Cl)cc4F)CC3)n(Cc3ncco3)c2c1 [Example 2, 2-[(4-{2-[(4-chloro-2-fluorobenzyl)oxy]pyridin-3-yl}piperidin-1-yl)methyl]-1-(1,3-oxazol-2-ylmethyl)-1H-benzimidazole-6-carboxylic acid, trifluoroacetate salt] | 3.2 | 79 | 38 | 81 | 
N#Cc1ccc(COc2nc(N3CCC4(CC3)CC4c3nc4ccc(C(=O)O)cc4n3CC3CCO3)ccc2F)c(F)c1 (single isomer, unassigned; ent-1) [Example 52] | 100 | 74 | 6400 | 100 | 
N#Cc1ccc(COc2ncccc2C2CCN(Cc3nc4ccc(C(=O)O)cc4n3Cc3ncco3)CC2)c(F)c1 [Example 4, 2-[(4-{2-[(4-cyano-2-fluorobenzyl)oxy]pyridin-3-yl}piperidin-1-yl)methyl]-1-(1,3-oxazol-2-ylmethyl)-1H-benzimidazole-6-carboxylic acid, trifluoroacetate salt] | 3 | 77 | 40 | 98 | 
C[C@H]1CN(c2nc(OCc3ccc(Cl)cc3F)ncc2F)CCN1Cc1nc2ccc(C(=O)O)cc2n1C[C@@H]1CCCO1 [Example 71, 2-{[(2S)-4-{2-[(4-chloro-2-fluorobenzyl)oxy]-5-fluoropyrimidin-4-yl}-2-methylpiperazin-1-yl]methyl}-1-[(2S)-tetrahydrofuran-2-ylmethyl]-1H-benzimidazole-6-carboxylic acid] | 8.9 | 82 | 160 | 90 | 
O=C(O)c1ccc2nc(C3CC34CCN(c3ncc(F)c(OCc5ccc(Cl)cc5F)n3)CC4)n(CC3CCO3)c2c1 (single isomer, unassigned) [Example 50] | 0.71 | 78 | 19 | 80 | 
